Our source for the IC50 values is patent US11407763B2, “Tryptophan hydroxylase inhibitor and pharmaceutical composition including same” (GWANGJU INSTITUTE OF SCIENCE AND TECHNOLOGY, priority 2017, dated 2022).

Structures can show the parent of a compound that is named as a salt.

The IC50 is the point on the concentration scale where inhibition reaches its midpoint. Read a high IC50 as weaker potency.

TPH1 (tryptophan hydroxylase 1), sequence (P17752 whole entry): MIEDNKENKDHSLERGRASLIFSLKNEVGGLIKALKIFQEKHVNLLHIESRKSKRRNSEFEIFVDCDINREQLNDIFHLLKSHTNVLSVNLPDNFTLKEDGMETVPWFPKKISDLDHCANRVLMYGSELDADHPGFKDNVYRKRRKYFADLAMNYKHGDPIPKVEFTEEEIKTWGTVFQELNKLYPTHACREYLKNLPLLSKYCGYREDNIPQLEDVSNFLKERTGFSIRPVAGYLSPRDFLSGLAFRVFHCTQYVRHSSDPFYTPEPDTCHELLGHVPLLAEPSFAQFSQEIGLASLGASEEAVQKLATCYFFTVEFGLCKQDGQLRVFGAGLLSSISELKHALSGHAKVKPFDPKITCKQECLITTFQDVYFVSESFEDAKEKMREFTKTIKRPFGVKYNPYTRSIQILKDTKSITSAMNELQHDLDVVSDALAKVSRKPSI

One assay addresses TPH1 (tryptophan hydroxylase 1) (Homo sapiens (Human), UniProt P17752). Put plainly: TPH1 inhibitor screening assay kit (BPS Bioscience), fluorescence. It counts as biochemical. As to conditions: TPH1. How it is done: In order to confirm the inhibitory effect of the compound represented by formula 1 according to the present invention on the tryptophan hydroxylase activity, it was measured using a TPH1 (tryptophan hydroxylase 1) inhibitor screening assay kit (BPS Bioscience, Catalog #72053). The TPH1 inhibitor screening assay kit was used according to the manufacturer's manual.
Particularly, the synthesized compound was dissolved in DMSO, which was added to a 96-well microplate (10 ? /well), to which TPH1 enzyme was added (40 ? /well). Then, TPH1 reaction solution was added to the microplate (50 ? /well) and the microplate was shaded with aluminum foil. The microplate was transferred to 4° C. environment, shaken carefully and incubated for 4 hours. After adding a quench solution to the microplate (10 ? /well), the TPH1 activity was measured by reading the degree of fluorescence color development with a Flexstation3 microplate reader. At this time, the excitation spectrum was 300 nm and the emission spectrum was 360 nm.
For the molecule `Cc1ccn(-c2cc(Cl)ccc2[C@@H](Oc2cc(C3=CCC(C[C@H](N)C(=O)O)CC3)nc(N)n2)C(F)(F)F)n1` (stereo partly drawn) [Example 45, (2S)-2-amino-3-(4-(2-amino-6-((R)-1-(4-chloro-2-(3-methyl-1H-pyrazole-1-yl)phenyl)-2,2,2-trifluoroethoxy)pyrimidine-4-yl)cyclohex-3-ene-1-yl)propionic acid], the IC50 came out at 98 nM.

`Nc1nc(O[C@H](c2ccc(Cl)cc2C2=CCCOC2)C(F)(F)F)cc(C2=CCC(C[C@H](N)C(=O)O)CC2)n1` (stereo partly drawn) [Example 67, (2S)-2-amino-3-(4-(2-amino-6-((R)-1-(4-chloro-2-(5,6-dihydro-2H-pyran-3-yl)phenyl)-2,2,2-trifluoroethoxy)pyrimidine-4-yl)cyclohex-3-ene-1-yl)propionic acid] had an IC50 of 91 nM.

Staying with this assay, now noted: TPH1 enzyme, 4 hours at 4° C., ex 300 nm / em 360 nm.
Molecule `Cc1ccn(-c2cc(Cl)ccc2[C@@H](Oc2ncnc3c(C4=CCC(C[C@H](N)C(=O)O)CC4)csc23)C(F)(F)F)n1` (stereo partly drawn) [Example 30, (2S)-2-amino-3-(4-(4-((R)-1-(4-chloro-2-(3-methyl-1H-pyrazole-1-yl)phenyl)-2,2,2-trifluoroethoxy)thieno[3,2-d]pyrimidine-7-yl)cyclohex-3-ene-1-yl)propionic acid hydrochloride] registered an IC50 of 1510 nM.

In turn, `COc1cccc(-c2ccc(Cn3ccc4c(-c5ccc(C[C@H](N)C(=O)O)cc5)nc(N)nc43)cc2)c1` [Example 12, (S)-2-amino-3-(4-(2-amino-7-((3′-methoxy-[1,1′-biphenyl]-4-yl)methyl)-7H-pyrrolo[2,3-d]pyrimidine-4-yl)phenyl)propionic acid hydrochloride] had a concentration for half-maximal inhibition (IC50) of 297 nM.

On to `N[C@@H](Cc1ccc(-c2csc3c(O[C@H](c4ccc(Cl)cc4C4=CCCOC4)C(F)(F)F)ncnc23)cc1)C(=O)O` [Example 70, (S)-2-amino-3-(4-(4-((R)-1-(4-chloro-2-(5,6-dihydro-2H-pyran-3-yl)phenyl)-2,2,2-trifluoroethoxy)thieno[3,2-d]pyrimidine-7-yl)phenyl)propionic acid], for which the midpoint of inhibition, the IC50, lay at 371 nM.

On to `Nc1nc(O[C@H](c2ccc(Cl)cc2C2=CCC(F)(F)CC2)C(F)(F)F)cc(C2=CCC(C[C@H](N)C(=O)O)CC2)n1` (stereo partly drawn) [Example 75, (2S)-2-amino-3-(4-(2-amino-6-((R)-1-(5-chloro-4′,4′difluoro-2′,3′,4′,5′-tetrahydro-[1,1′-biphenyl]-2-yl)-2,2,2-trifluoroethoxy)pyrimidine-4-yl)cyclohex-3-ene-1-yl)propionic acid hydrochloride], for which inhibition was half-maximal at 443 nM (IC50).

`Cc1ccn(-c2cc(Cl)ccc2[C@@H](Oc2cc(C3=CCC(C[C@H](N)C(=O)O)CC3)nc(N)n2)C(F)(F)F)n1` (stereo partly drawn) [Example 45, (2S)-2-amino-3-(4-(2-amino-6-((R)-1-(4-chloro-2-(3-methyl-1H-pyrazole-1-yl)phenyl)-2,2,2-trifluoroethoxy)pyrimidine-4-yl)cyclohex-3-ene-1-yl)propionic acid] had an IC50 of 98 nM.

The molecule `COc1cccc(-c2ccc(Cn3ccc4c(-c5ccc(C[C@H](N)C(=O)O)cc5)ncnc43)cc2)c1` [Example 23, (S)-2-amino-3-(4-(7-((3′-methoxy-[1,1′-biphenyl]-4-yl)methyl)-7H-pyrrolo[2,3-d]pyrimidine-4-yl)phenyl)propionic acid hydrochloride] registered an IC50 of 578 nM.

Molecule `Cc1ccn(-c2cc(Cl)ccc2[C@@H](Oc2nc(N)nc3c(-c4ccc(C[C@H](N)C(=O)O)cc4)csc23)C(F)(F)F)n1` [Example 91, (S)-2-amino-3-(4-(2-amino-4-((R)-1-(4-chloro-2-(3-methyl-1H-pyrazole-1-yl)phenyl)-2,2,2-trifluoroethoxy)thieno[3,2-d]pyrimidine-7-yl)phenyl)propionic acid hydrochloride] came in with an IC50 of 208 nM.

Take `Nc1nc(O[C@H](c2ccc(Cl)cc2C2=CCOCC2)C(F)(F)F)cc(C2=CCC(C[C@H](N)C(=O)O)CC2)n1` (stereo partly drawn) [Example 85, (2S)-2-amino-3-(4-(2-amino-6-((R)-1-(4-chloro-2-(3,6-dihydro-2H-pyran-4-yl)phenyl)-2,2,2-trifluoroethoxy)pyrimidine-4-yl)cyclohex-3-ene-1-yl)propionic acid]: half-maximal inhibition (IC50) was put at 940 nM.

`Cc1ccn(-c2cc(Cl)ccc2[C@@H](Oc2cc(C3=CCC(C[C@H](N)C(=O)O)CC3)nc(C)n2)C(F)(F)F)n1` (stereo partly drawn) [Example 32, (2S)-2-amino-3-(4-(6-((R)-1-(4-chloro-2-(3-methyl-1H-pyrazole-1-yl)phenyl)-2,2,2-trifluoroethoxy)-2-methylpyrimidine-4-yl)cyclohex-3-ene-1-yl)propionic acid hydrochloride] came in with a half-maximal inhibitory concentration (IC50) of 1820 nM.

As for `COc1cccc(-c2ccc([C@@H](Oc3cc(C4=CCC(C[C@H](N)C(=O)O)CC4)nc(N)n3)C(F)(F)F)cc2)c1` (stereo partly drawn) [Example 58, (2S)-2-amino-3-(4-(2-amino-6-((R)-2,2,2-trifluoro-1-(3′-methoxy-[1,1′-biphenyl]-4-yl)ethoxy)pyrimidine-4-yl)cyclohex-3-ene-1-yl)propionic acid], half-maximal inhibition (IC50) required 204 nM.

Molecule `CCOC(=O)[C@@H](N)Cc1ccc(-c2csc3c(O[C@H](c4ccc(Cl)cc4-n4ccc(C)n4)C(F)(F)F)ncnc23)cc1` [Example 22, ethyl (S)-2-amino-3-(4-(4-((R)-1-(4-chloro-2-(3-methyl-1H-pyrazole-1-yl)phenyl)-2,2,2-trifluoroethoxy)thieno[3,2-d]pyrimidine-7-yl)phenyl)propionate hydrochloride] yielded a half-maximal inhibitory concentration (IC50) of 993 nM.

As for `COc1cccc(-c2ccc([C@@H](Oc3cc(C4=CCC5(CC4)CNC(C(=O)O)C5)nc(N)n3)C(F)(F)F)cc2)c1` (stereo partly drawn) [Example 89, 8-(2-amino-6-((R)-2,2,2-trifluoro-1-(3′-methoxy-[1,1′-biphenyl]-4-yl)ethoxy)pyrimidine-4-yl)-2-azaspiro[4.5]dec-7-ene-3-carboxylic acid], the IC50 came to 409 nM.

On to `Nc1nc(O[C@H](c2ccc(Cl)cc2C2=CCCOC2)C(F)(F)F)cc(C2=CCC3(CC2)CNC(C(=O)O)C3)n1` (stereo partly drawn) [Example 94, 8-(2-amino-6-((R)-1-(4-chloro-2-(5,6-dihydro-2H-pyran-3-yl)phenyl)-2,2,2-trifluoroethoxy)pyrimidine-4-yl)-2-azaspiro[4.5]dec-7-ene-3-carboxylic acid hydrochloride], for which the midpoint of inhibition, the IC50, lay at 209 nM.

Consider `N[C@@H](Cc1ccc(-c2csc3c(OC(c4ccc(Cl)cc4-c4ccc(F)cc4)C(F)(F)F)ncnc23)cc1)C(=O)O` (stereo partly drawn) [Example 46, (2S)-2-amino-3-(4-(4-(1-(5-chloro-4′-fluoro-[1,1′-biphenyl]-2-yl)-2,2,2-trifluoroethoxy)thieno[3,2-d]pyrimidine-7-yl)phenyl)propionic acid hydrochloride], for which 8720 nM corresponded to half-maximal inhibition (IC50).

Still in this assay, the particulars now being: TPH1 enzyme, 4 hours at 4° C., ex 300 nm / em 360 nm; hydrochloride.
As for `Cc1ccn(-c2cc(Cl)ccc2[C@@H](Oc2cc(C3=CCC4(CC3)CNC(C(=O)O)C4)nc(N)n2)C(F)(F)F)n1` (stereo partly drawn) [Example 79, 8-(2-amino-6-((R)-1-(4-chloro-2-(3-methyl-1H-pyrazole-1-yl)phenyl)-2,2,2-trifluoroethoxy)pyrimidine-4-yl)-2-azaspiro[4.5]dec-7-ene-3-carboxylic acid hydrochloride], inhibition was half-maximal at 185 nM (IC50).

The molecule `COc1cccc(-c2ccc([C@@H](Oc3cc(C4=CCC(C[C@H](N)C(=O)O)CC4)nc(N)n3)C(F)(F)F)cc2)c1` (stereo partly drawn) [Example 34, (2S)-2-amino-3-(4-(2-amino-6-((R)-2,2,2-trifluoro-1-(3′-methoxy-[1,1′-biphenyl]-4-yl)ethoxy)pyrimidine-4-yl)cyclohex-3-ene-1-yl)propionic acid hydrochloride] returned a half-inhibitory concentration (IC50) of 281 nM.
